{"source": "patent US3955959A", "about": "“Herbicide for use in transplanted rice” (priority 1974, dated 1976)", "key": {"[1]": {"system": "weeds in upland direct-seeded rice", "experiment": "Example 7 overall", "type": "in vivo", "conditions": "particular spectrum of weeds", "experimental": "In a further comparative study of the preemergence activity of Herbicides A and B, a variety of weeds and upland direct-seeded rice were tested under greenhouse conditions. The present invention is not concerned with the use of Herbicide A in direct-seeded rice. The primary purpose of the experimental work in this example is to compare relative herbicidal activity of Herbicides A and B against the weeds shown in Table 7; most of these weeds were not available for tests with transplanted rice. Although the relative selectivity of these herbicides in upland rice is also evident, that aspect of the tests is more or less incidental to the purpose of this example.\nIn this example, rice seeds and seeds of the weeds shown in Table 7 were sown in Ray silt loam soil at a depth of 0.5 inch (1.27 cm) in containers for the soil in a greenhouse. Herbicides A and B were applied to the surface of the soil at a spray volume equivalent to 20 gals/acre (187.1 liters/hectare), followed by 0.5 in (1.27 cm) of overhead irrigation. Temperature and relative humidity in the greenhouse were on the order of 85°F (29°C) and 75%, respectively. Observations were made at 21-28 days after seeding. […]"}, "transplanted rice": {"system": "transplanted rice", "experiment": "Example 2 field test, rice yield", "type": "in vivo, rice (Tainan No. 5, japonica)", "experimental": "(§1) In the tests described in the tables below, the herbicides were formulated and used in granular form in conventional manner. […] The commercial herbicide used was a granular product having 5% active ingredient.\n(§2) In the field tests of the herbicide of this invention with transplanted rice, the rice seedlings were grown in conventional manner, by seeding the rice in a typical seedbed of sandy loam to clay soil of the country wherein the test was conducted. For laboratory and greenhouse work the seedlings were obtained by seeding rice in a mixture of soil, e.g., Ray silt loam, and peat in wood flats. For purposes of testing the herbicides on younger rice seedlings (infant or Dapog) the rice was usually allowed to grow for 6-15 days before lifting for transplanting. Older (ordinary) rice plants were usually grown for a period of about 2-3 weeks, or as much as about 7 weeks before lifting. Since the period of growth is dependent upon climatic conditions, a better measure of when to transplant the rice seedling is the leaf stage of growth; for infant or Dapog rice the seedling is lifted at the 1.5-2 leaf stage of growth, and for ordinary seedlings at the 2.5-5 leaf stage. The seedlings were then transplanted to the test plots for evaluation of the herbicide for injury against weed species present with the transplanted rice. The herbicides were then applied to the growth medium of the weeds and transplant rice, either preemergent or postemergent with respect to the weeds and postemergent with respect to the transplanted rice. Application times are designated in the tables as \"DAT\", meaning \"days after transplant\". Application rates given in the tables refer to the amount of active ingredient used.\nRice seedlings (ordinary) of Tainan No. 5 variety (japonica) were transplanted at 19 days of growth. Granular formulations of Herbicides A and B were applied at the 1 leaf stage of grass weed (4 DAT) and 2.5 leaf stage of grass weed (10 DAT). Observations were made at 63 DAT and results reported in Table 2 as an average of 3 replications."}, "[2]": {"system": "weeds Ec, Ann. Cyp, Mv, Obw, Ea", "experiment": "Example 5 field test, average weed control, JAAPR, Japan", "conditions": "1.5 kg/ha, 7 DAT", "experimental": "as §1, §2\n(§3) The rice seedlings were grown to the 1.7 leaf stage for infant seedlings and to the 5.5 leaf stage for ordinary seedlings. Two days after puddling the soil in which the seedlings were to be transplanted, both infant and ordinary seedlings were transplanted into plots 8.5 m^2.\n(§4) The weed symbol \"Obw\" represents \"other broadleaf weeds\" of unspecified identity. Results presented in Table 5 represent the average of 2 replications."}, "Dapog transplanted rice": {"system": "Dapog transplanted rice", "experiment": "Example 3 field test, rice yield", "type": "in vivo", "experimental": "as §1, §2\nEleven (11) day-old Dapog seedlings were transplanted and treated at 5 DAT and 14 DAT with Herbicides A and B. The plots were overseeded with Echinochloa crusgalli seeds at 2 kgs/ha prior to transplanting. Treatments were replicated four times."}, "[3]": {"system": "Broadleaf: Mv, Sz (Monochoria vaginalis, Sphenoclea zeylanica)", "experiment": "Example 3 field test on Dapog rice, weed control, Munoz, Philippines", "type": "in vivo, Monochoria vaginalis and Sphenoclea zeylanica", "conditions": "obs. 42 DAT", "excerpt": "Treatments were replicated four times."}, "Monochoria vaginalis": {"system": "Monochoria vaginalis", "experiment": "Example 2 field test, weed control, Chia Yi, Taiwan", "type": "in vivo", "conditions": "obs. 63 DAT", "description": "In the field tests of the herbicide of this invention with transplanted rice, the rice seedlings were grown in conventional manner, by seeding the rice in a typical seedbed of sandy loam to clay soil of the country wherein the test was conducted. For laboratory and greenhouse work the seedlings were obtained by seeding rice in a mixture of soil, e.g., Ray silt loam, and peat in wood flats. For purposes of testing the herbicides on younger rice seedlings (infant or Dapog) the rice was usually allowed to grow for 6-15 days before lifting for transplanting. Older (ordinary) rice plants were usually grown for a period of about 2-3 weeks, or as much as about 7 weeks before lifting. Since the period of growth is dependent upon climatic conditions, a better measure of when to transplant the rice seedling is the leaf stage of growth; for infant or Dapog rice the seedling is lifted at the 1.5-2 leaf stage of growth, and for ordinary seedlings at the 2.5-5 leaf stage. The seedlings were then transplanted to the test plots for evaluation of the herbicide for injury against weed species present with the transplanted rice. The herbicides were then applied to the growth medium of the weeds and transplant rice, either preemergent or postemergent with respect to the weeds and postemergent with respect to the transplanted rice. […] Application rates given in the tables refer to the amount of active ingredient used."}, "[4]": {"system": "transplanted rice (ordinary and infant seedlings)", "experiment": "Example 5 field test, rice injury", "conditions": "1.5 kg/ha, 7 DAT", "experimental": "as §1, §2, §3, §4"}, "Ann. Cyp (Cyperus spp)": {"system": "Ann. Cyp (Cyperus spp)", "experiment": "Example 5 field test, weed control, JAAPR, Japan", "conditions": "1.5 kg/ha, 7 DAT", "experimental": "as §1, §2, §3, §4"}, "[5]": {"system": "ordinary transplanted rice", "experiment": "Example 4 field test, crop injury", "conditions": "obs. 36 DAT", "experimental": "as §1, §2\n(§5) In this example comparative field tests were conducted with Herbicides A and B on ordinary transplanted rice at Munoz, Philippines.\n(§6) Twenty-one (21) day-old ordinary wet bed seedlings of the Fortuna variety were transplanted to field plots and Herbicides A and B applied at 5 DAT and 14 DAT. The field plots were overseeded with barnyardgrass (E. crusgalli) at 2 kgs/ha. Treatments were replicated four times."}, "[6]": {"system": "ordinary transplanted rice", "experiment": "Example 4 field test, rice yield", "type": "in vivo, rice (Fortuna variety)", "experimental": "as §1, §2, §5, §6"}}}
{"molecule": "CCCCOCN(C(=O)CCl)c1c(CC)cccc1CC", "note": "[Herbicide B, n-(butoxymethyl)-2',6'-diethyl-2-chloroacetanilide, reference compound]", "values": [{"measurement": "selectivity, A vs B, upland direct-seeded rice", "setting": "[1]", "result": "slightly more selective"}, {"measurement": "Yield (% of H.W. Check)", "setting": "transplanted rice; 4 DAT, 1.0 kg/ha", "result": 110, "unit": "%"}, {"measurement": "Yield (% of H.W. Check)", "setting": "transplanted rice; 4 DAT, 1.5 kg/ha", "result": 103, "unit": "%"}, {"measurement": "Yield (% of H.W. Check)", "setting": "transplanted rice; 4 DAT, 3.0 kg/ha", "result": 99, "unit": "%"}, {"measurement": "Yield (% of H.W. Check)", "setting": "transplanted rice; 10 DAT, 1.0 kg/ha", "result": 97, "unit": "%"}, {"measurement": "Yield (% of H.W. Check)", "setting": "transplanted rice; 10 DAT, 1.5 kg/ha", "result": 98, "unit": "%"}, {"measurement": "Yield (% of H.W. Check)", "setting": "transplanted rice; 10 DAT, 3.0 kg/ha", "result": 99, "unit": "%"}, {"measurement": "% Weed Control, Avg.", "setting": "[2]; infant seedlings", "result": 93, "unit": "%"}, {"measurement": "% Weed Control, Avg.", "setting": "[2]; ordinary seedlings", "result": 86, "unit": "%"}, {"measurement": "yield vs control", "setting": "Dapog transplanted rice; 1 kg/ha, 5 DAT", "result": "significantly higher than the control"}, {"measurement": "Yield (% of H.W. Check)", "setting": "Dapog transplanted rice; 5 DAT, 1.0 kg/ha", "result": 142, "unit": "%"}, {"measurement": "Yield (% of H.W. Check)", "setting": "Dapog transplanted rice; 5 DAT, 1.5 kg/ha", "result": 107, "unit": "%"}, {"measurement": "Yield (% of H.W. Check)", "setting": "Dapog transplanted rice; 5 DAT, 3.0 kg/ha", "result": 101, "unit": "%"}, {"measurement": "Yield (% of H.W. Check)", "setting": "Dapog transplanted rice; 14 DAT, 1.0 kg/ha", "result": 83, "unit": "%"}, {"measurement": "Yield (% of H.W. Check)", "setting": "Dapog transplanted rice; 14 DAT, 1.5 kg/ha", "result": 89, "unit": "%"}, {"measurement": "Yield (% of H.W. Check)", "setting": "Dapog transplanted rice; 14 DAT, 3.0 kg/ha", "result": 93, "unit": "%"}, {"measurement": "% Weed control, Broadleaf (Mv,Sz)", "setting": "[3]; 5 DAT, 1.0 kg/ha", "result": 100, "unit": "%"}, {"measurement": "% Weed control, Broadleaf (Mv,Sz)", "setting": "[3]; 5 DAT, 1.5 kg/ha", "result": 100, "unit": "%"}, {"measurement": "% Weed control, Broadleaf (Mv,Sz)", "setting": "[3]; 5 DAT, 3.0 kg/ha", "result": 100, "unit": "%"}, {"measurement": "% Weed control, Broadleaf (Mv,Sz)", "setting": "[3]; 14 DAT, 1.0 kg/ha", "result": 0, "unit": "%"}, {"measurement": "% Weed control, Broadleaf (Mv,Sz)", "setting": "[3]; 14 DAT, 1.5 kg/ha", "result": 0, "unit": "%"}, {"measurement": "% Weed control, Broadleaf (Mv,Sz)", "setting": "[3]; 14 DAT, 3.0 kg/ha", "result": 70, "unit": "%"}, {"measurement": "% Weed Control (Monochoria Vaginalis)", "setting": "Monochoria vaginalis; 4 DAT, 1.0 kg/ha", "result": 77, "unit": "%"}, {"measurement": "% Weed Control (Monochoria Vaginalis)", "setting": "Monochoria vaginalis; 4 DAT, 1.5 kg/ha", "result": 94, "unit": "%"}, {"measurement": "% Weed Control (Monochoria Vaginalis)", "setting": "Monochoria vaginalis; 4 DAT, 3.0 kg/ha", "result": 99, "unit": "%"}, {"measurement": "% Weed Control (Monochoria Vaginalis)", "setting": "Monochoria vaginalis; 10 DAT, 1.0 kg/ha", "result": 65, "unit": "%"}, {"measurement": "% Weed Control (Monochoria Vaginalis)", "setting": "Monochoria vaginalis; 10 DAT, 1.5 kg/ha", "result": 78, "unit": "%"}, {"measurement": "% Weed Control (Monochoria Vaginalis)", "setting": "Monochoria vaginalis; 10 DAT, 3.0 kg/ha", "result": 89, "unit": "%"}, {"measurement": "Injury", "setting": "[4]; infant seedlings", "result": 10}, {"measurement": "Injury", "setting": "[4]; ordinary seedlings", "result": 5}, {"measurement": "control of Ann. Cyp in words", "setting": "Ann. Cyp (Cyperus spp)", "result": "substantially complete control"}, {"measurement": "% Weed Control (Ann. Cyp)", "setting": "Ann. Cyp (Cyperus spp); infant seedlings", "result": 100, "unit": "%"}, {"measurement": "% Weed Control (Ann. Cyp)", "setting": "Ann. Cyp (Cyperus spp); ordinary seedlings", "result": 99, "unit": "%"}, {"measurement": "Crop Injury (%)", "setting": "[5]; 5 DAT, 1.0 kg/ha", "result": 0, "unit": "%"}, {"measurement": "Crop Injury (%)", "setting": "[5]; 5 DAT, 1.5 kg/ha", "result": 0, "unit": "%"}, {"measurement": "Crop Injury (%)", "setting": "[5]; 5 DAT, 3.0 kg/ha", "result": 0, "unit": "%"}, {"measurement": "Crop Injury (%)", "setting": "[5]; 14 DAT, 1.0 kg/ha", "result": 0, "unit": "%"}, {"measurement": "Crop Injury (%)", "setting": "[5]; 14 DAT, 1.5 kg/ha", "result": 0, "unit": "%"}, {"measurement": "Crop Injury (%)", "setting": "[5]; 14 DAT, 3.0 kg/ha", "result": 0, "unit": "%"}, {"measurement": "yield vs hand weeded check", "setting": "[6]; 1.0 kg/ha, 14 DAT", "result": "statistically significantly lower than the hand weeded check"}, {"measurement": "Yield (% of H.W. Check)", "setting": "[6]; 5 DAT, 1.0 kg/ha", "result": 115, "unit": "%"}, {"measurement": "Yield (% of H.W. Check)", "setting": "[6]; 5 DAT, 1.5 kg/ha", "result": 110, "unit": "%"}, {"measurement": "Yield (% of H.W. Check)", "setting": "[6]; 5 DAT, 3.0 kg/ha", "result": 100, "unit": "%"}, {"measurement": "Yield (% of H.W. Check)", "setting": "[6]; 14 DAT, 1.0 kg/ha", "result": 82, "unit": "%"}, {"measurement": "Yield (% of H.W. Check)", "setting": "[6]; 14 DAT, 1.5 kg/ha", "result": 86, "unit": "%"}, {"measurement": "Yield (% of H.W. Check)", "setting": "[6]; 14 DAT, 3.0 kg/ha", "result": 94, "unit": "%"}]}
